Experimental data from patent US20030055067A1, “Antifungal composition with enhanced bioavailability” (SCHERING CORPORATION, priority 2001, published 2003).

What was measured:
[1] = Randomized, open-label, 4-way crossover, single-dose bioavailability and food effect study; format: in vivo, healthy subjects; conditions: for 0-hour plasma concentration of posaconazole: likely carry-over from previous doses
Excerpt: The relative bioavailability of the posaconazole oral suspension was compared to a solid dosage form of posaconazole in healthy subjects. The first objective was to determine the relative bioavailability of posaconazole given as an oral suspension compared to an oral solid formulation when administered with a high-fat breakfast. The second objective was to determine the effect of high-fat and non-fat food relative to fasting conditions on the oral bioavailability of the compound of formula I when given as an oral suspension. Twenty healthy subjects completed this randomized, open-label, 4-way crossover, single-dose bioavailability and food effect study of posaconazole. Subjects received each of the following four treatments separated by at least a 7 day washout period: [table] Subjects were randomized to either remain fasted (Treatment A), to receive a standardized high fat breakfast (Treatment B or D) or a standardized non-fat breakfast (Treatment C). Meals were consumed in a 20-minute period prior to the morning drug administration and subjects received the appropriate treatment within 5 minute of completing the breakfast. […] The area under the plasma concentration-time curve from time zero to the final quantifiable sampling time [AUC(tf)] was calculated using the linear trapezoidal method and extrapolated to infinity (I) as follows: [formula] where C(tf) is the estimated concentration determined from linear regression at time, tf. Total body clearance was calculated by the following: CL=Dose/AUC(I) The apparent volume of distribution ([…]) was calculated from the ratio of the total body clearance to the terminal phase rate constant (K). Summary statistics were calculated for the plasma suspension formulation of the present invention compared to a prior art tablet formulation concentration-time data at each time point and the derived pharmacokinetic parameters. The original scale and log-transformed Cmax and AUC values were analyzed using an analysis of variance (ANOVA). […]

[2] = Rate of sedimentation of the oral suspension (HPLC assay after shaking and rest); format: physicochemical; conditions: after 3 days
Experimental: The rate of sedimentation of the liquid suspension of the present invention was determined as set forth below. Two bottles containing the suspension of the present invention were shaken and left to rest. The bottles were then sampled immediately (time zero), then after 5 minutes, 10 minutes, 30 minutes, 60 minutes and after 72 hours (three days) post shaking. The levels of posaconazole and of the preservative (Sodium Benzoate) in these samples were assayed by HPLC. HPLC methods of detection are well-known to one of skill in the art.

[3] = Lipophilicity and water solubility (background statement); format: physicochemical
[4] = system: Aspergillis, Candida, Cryptococcus, Fusarium, and other opportunistic fungi; conditions: broad range of fungi; cited from earlier work

For `CC[C@@H]([C@H](C)O)n1ncn(-c2ccc(N3CCN(c4ccc(OC[C@@H]5CO[C@@](Cn6cncn6)(c6ccc(F)cc6F)C5)cc4)CC3)cc2)c1=O` [posaconazole], the “0-hour plasma concentration of posaconazole” value ([1]; Subject 20, Treatment A) was 22.5 ng/mL, the “0-hour plasma concentration of posaconazole” value ([1]; Subject 20, Treatment B) was 8.5 ng/mL and the “mean terminal t½” value ([1]; independent of treatment) was “about 22 hour”. For the same molecule, the sedimentation of posaconazole [2] was “not sedimented”, the lipophilicity [3] was “highly lipophilic” and the water solubility [3] was “extremely low”. For the same molecule, the antifungal activity [4] was “potent”.
